Laboratory results reported in US10532040B2, “Methods of treating cancer with herbacetin” (REGENTS OF THE UNIVERSITY OF MINNESOTA, priority 2011, dated 2020).
Changes are numbered by the printed parent chain. Entries after “also recorded” stand apart in the source; their conditions may differ.

What was measured:
ODC [1] = molecular target: T1, ODC (Homo sapiens, UniProt P11926); experiment: ODC enzyme assay with recombinant ODC protein; format: biochemical; conditions: in vitro
T1 sequence (P11926 1-461): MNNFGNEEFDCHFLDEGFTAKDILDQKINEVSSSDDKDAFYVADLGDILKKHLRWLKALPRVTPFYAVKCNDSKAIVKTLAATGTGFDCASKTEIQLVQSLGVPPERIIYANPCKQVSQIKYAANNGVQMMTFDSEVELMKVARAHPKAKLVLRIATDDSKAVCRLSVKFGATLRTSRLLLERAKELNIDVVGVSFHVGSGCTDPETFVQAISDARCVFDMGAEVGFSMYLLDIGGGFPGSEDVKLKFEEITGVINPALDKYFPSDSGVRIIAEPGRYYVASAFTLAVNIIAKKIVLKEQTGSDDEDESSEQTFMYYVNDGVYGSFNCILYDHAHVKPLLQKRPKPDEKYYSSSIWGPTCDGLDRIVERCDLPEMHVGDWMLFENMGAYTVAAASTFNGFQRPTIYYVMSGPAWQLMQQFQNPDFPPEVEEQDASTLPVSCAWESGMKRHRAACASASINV
Experimental: FIGS. 5A-5E. The effect of herbacetin on ODC activity was assessed in (a) DLD-1 and (b) HCT116 colon cancer cells. Cell lysates were incubated for 15 min with reaction buffer and different doses of herbacetin or DFMO and then incubated at 37° C. for 1 h. Herbacetin (c) and kaempferol (d) were modeled as allosteric inhibitors with the ODC crystal structure. (e) The effect of herbacetin or kaempferol on ODC activity was assessed using a human ODC recombinant protein. Each reaction was incubated at 37° C. for 1 h and ODC activity was measured as the release of CO2 from L-[1-C^14] ornithine. Data are represented as means±S.D. of triplicate values. The asterisk (*) indicates a significant difference (p<0.05) between herbacetin-treated samples compared to untreated or kaempferol-treated samples.
(§1) ODC activity was measured as the release of CO2 from L-[1-C^14] ornithine as previously described ([…]).

ODC [2] = molecular target: T2, ODC (Mus musculus, UniProt P00860); experiment: ODC activity in TPA-treated JB6 mouse skin epidermal cells; format: cell-based
T2 construct: endogenous in cells; host or cells: JB6 mouse skin epidermal cells, TPA-treated
T2 sequence (P00860 1-461): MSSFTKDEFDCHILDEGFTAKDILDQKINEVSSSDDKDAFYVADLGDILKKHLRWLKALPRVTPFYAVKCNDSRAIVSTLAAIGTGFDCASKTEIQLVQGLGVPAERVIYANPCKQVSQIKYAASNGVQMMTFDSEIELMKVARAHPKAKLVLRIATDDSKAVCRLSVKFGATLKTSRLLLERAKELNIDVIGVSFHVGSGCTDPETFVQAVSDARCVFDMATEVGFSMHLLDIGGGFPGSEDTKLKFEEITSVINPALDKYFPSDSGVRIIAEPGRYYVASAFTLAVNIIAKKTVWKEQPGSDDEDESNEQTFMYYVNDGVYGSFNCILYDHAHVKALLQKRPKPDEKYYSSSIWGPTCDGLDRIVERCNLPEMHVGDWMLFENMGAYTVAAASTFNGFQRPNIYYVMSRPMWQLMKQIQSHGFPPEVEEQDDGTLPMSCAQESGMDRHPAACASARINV
Experimental: as §1

[3] = molecular target: T3, ODC (WT, D44A, D243A, E384A) (Homo sapiens, UniProt P11926, D44A); experiment: activity of ectopically expressed ODC (WT, D44A, D243A, E384A); format: cell-based; conditions: D44A vs D243A, E384A or wildtype ODC
T3 construct: expressed in transfected cells; host or cells: HCT116 colon cancer cells
T3 sequence (P11926 1-461 D44A): T1 sequence (P11926 1-461) with D44A
Experimental: FIGS. 1A-1H. Herbacetin binds directly to ODC and inhibits ODC activity. (a) Chemical structure of herbacetin, a new allosteric ODC inhibitor. (b) Computer modeling of herbacetin and the ODC protein crystal structure. […] (c, upper panel) Recombinant ODC, (c, lower panel) HCT116 colon cancer cell lysate or (d) ectopically expressed ODC (WT, mutant D44A, D243A and E384A) cells were incubated with herbacetin-conjugated Sepharose 4B beads or with Sepharose 4B beads alone. Proteins were pulled down using anti-Xpress and then analyzed by Western blotting. The effect of herbacetin on ODC activity was assessed using a (e) recombinant ODC protein, (f) HCT116 colon cancer cells, or (g) TPA-treated JB6 mouse skin epidermal cells. (h) The effect of herbacetin on ectopically expressed ODC (WT, D44A, D243A, E384A) activity was measured as the release of CO2 from L-[1-C^14] ornithine. For e-h, data are represented as means±S.D. of values from triplicate experiments and the asterisk (*) indicates a significant difference (p<0.05) between herbacetin- or DFMO-treated samples compared to untreated controls. WB, Western blot.
as §1

ERKs/RSK2 signaling = experiment: TPA- or EGF-induced phosphorylation of ERK1 and ERK2 in JB6 cells, Western blotting; format: cell-based, mouse; conditions: herbacetin 2 h then TPA or EGF 15 min
Experimental: FIGS. 6A-6B. The effect of herbacetin on (a) TPA- or (b) EGF-induced phosphorylation of ERK1 and ERK2 in JB6 mouse epidermal cells was analyzed by Western blotting. Serum-starved (0.1% FBS; 24 h) cells were treated with various doses of herbacetin for 2 h followed by treatment with TPA for 15 min.
We determined whether herbacetin affected the reporter activity of the MAP kinase target transcription factor, activator protein-1 (AP-1), in HCT116 cells or JB6 cells stimulated with TPA. HCT116 cells were treated with herbacetin for 48 hand JB6 cells were pre-treated with herbacetin for 2 h before stimulation with TPA for 48 h. AP-1 reporter activity was then measured (FIG. 3f, g) and the activity was attenuated by herbacetin in colon cancer cells and in TPA-activated JB6 cells. […] We next examined whether herbacetin directly suppresses phosphorylation of ERK1/2. JB6 cells were treated with TPA or EGF for 15 min after pre-treatment with herbacetin for 2 h and protein expression was analyzed by Western blotting (Supplementary FIG. 2a,b).

SMILES: O=c1c(O)c(-c2ccc(O)cc2)oc2c(O)c(O)cc(O)c12 [herbacetin, 3,5,7,8,4′-Pentahydroxyflavone]
- ODC activity (release of CO2 from L-[1-C^14] ornithine) (ODC [1]): inhibited ODC activity similarly
- suppression of ODC activity (ODC [2]): markedly more effective than DFMO; also recorded: inhibit TPA-induced ODC1 activity
- susceptibility of ODC D44A mutant activity to herbacetin [3]: less susceptible
- direct suppression of ERKs/RSK2 signaling (ERKs/RSK2 signaling): does not occur directly through the suppression of ERKs/RSK2 signaling
